Laboratory results reported in US9770500B2 (priority 2011, dated 2017).
pIC50: −log10 of the molar value.

Experiments:
[1] = biological target: T1, TcdB (Clostridioides difficile, UniProt P18177); type: biochemical, Clostridium difficile
[2] = test system: Caco-2 cells; conditions: MTT, TcdB 3.7 nM for 10 min
[3] = biological target: T2, TcdA (Clostridioides difficile, UniProt P16154); assay: cell-based
[4] = biological target: T1, TcdB
[5] = biological target: toxin glucosyltransferase activity (Clostridioides difficile, UniProt P16154); type: biochemical, Clostridium difficile
Description: Cell Free Rac1 Glucosvlation Assay. Glucosyltransferase activity of TcdA and TcdA-SNO was measured by their ability to glucosylate Rho GTPase Rac1 in a cell-free assay. Caco-2 cell pellets were resuspended in glucosylation buffer (50 mM HEPES, pH 7.5, 100 mM KCl, 1 mM MnCl2 and 2 mM MgCl2) and lysed with a syringe (25G, 40 passes through the needle). After centrifugation (167,000×g, 3 min), the supernatant was used as a post-nuclear cell lysate. To perform the glucosylation assay, the cell lysates were incubated with TcdA or TcdA-SNO (final concentration of the toxins was 5 μg/ml) at 37° C. for 30 min. The reaction was terminated by heating at 100° C. for 5 min in SDS-sample buffer. To measure Rac1 glucosylation levels, lysates were separated on a 4-20% gradient SDS-PAGE gel and transferred onto a nitrocellulose membrane. An antibody that specifically recognizes the non-glucosylated form of Rac1 (clone 102, BD Bioscience) was used for detection.

[6] = biological target: T2, TcdA; type: in vivo, Cd-1 mice
Description: TcdA-Exposure of Mouse Ileal Loops. Cd-1 mice (10 week old males; Charles River Labs) were fasted overnight. Ileal loops were ligated in anesthetized animals via laparotomy and injected with 0.15 ml of purified TcdA, TcdA-SNO or TcdA-NEM (10 μg) or buffer as described (Savidge et al., Gastroenterology 125:413-20 (2003); Oiu et al., Gastroenterology 111: 409-18 (1996)). […] Four hrs after TcdA administration, mice were euthanized and fluid secretion was determined as the loop weight ([…])-to-length (cm) ratio. Full thickness loops were frozen in liquid nitrogen or fixed in 10% formalin in PBS (pH 7.2) for 24 hours and embedded in paraffin using routine procedures. Histological severity of enteritis was evaluated by assessing (1) epithelial cell necrosis, (2) hemorrhagic congestion and edema of the mucosa, and (3) neutrophil margination and tissue infiltration (Savidge et al., Gastroenterology 125:413-20 (2003); Oiu et al., Gastroenterology 111: 409-18 (1996)).
Myeloperoxidase Assay. Neutrophil myeloperoxidase (MPO) activity is an indicator of tissue inflammation. Intestinal segments (100-250 mg) were homogenized in 1 ml HTAB buffer and centrifuged at 20,000×g for 10 min at 4° C. Pellets were resuspended in 1 ml HTAB buffer containing 1% hexadecyltrimethlammonium to negate pseudoperoxidase activity. MPO activity was measured in supernatants following 3 cycles of sonication, freezing and thawing. After centrifugation at 40,000×g for 15 min at 4° C., supernatants (10 μl) were mixed with 90 μl of potassium phosphate buffer containing 0.167 mg/ml O-dianiside dihydrochloride and 0.0005% hydrogen peroxide. Activity was measured every 2 minutes for 20 minutes at 450 nm.
Quantitative Cytokine mRNA Measurements. Total RNA was extracted from cells or frozen tissues, treated with 1 U DNAse I and reversed transcribed (Gene Amp RNA-PCR Kit). Real-time rtPCR reactions were run with SYBR Green PCR Master-Mix for 40 cycles on a Chromo4 detector (Bio-Rad Ltd) (94° C. for 2 min; 94° C. for 1 min; 60° C. for 1 min; 72QC for lmin; repeat step 2-to-4 for 40 cycles; 72° C. for 10 min). Primer sets were for human IL-8: (Forward 5′-[…]-3′ SEQ ID NO:2; Reverse 5′-[…]-3′ SEQ ID NO:3); murine TNFα (Forward 5′-[…]-3′ SEQ ID NO:4, Reverse 5′-[…] […]-3′ SEQ ID NO:5); murine […] (Forward 5′-TTGAC[…]-3′ SEQ ID NO:6, Reverse 5′-[…]-3′ SEQ ID NO:7). Samples were normalized against commercial GAPDH or 18S rRNA primers and probes (Applied Biosystems) and relative expression levels were calculated as previously described (Savidge et al., Gastroenterology 132:1344-58 (2007)).

[7] = test system: C. difficile toxin
[8] = biological target: C. difficile TcdA holotoxin (Clostridioides difficile, UniProt P16154); type: binding, Clostridium difficile
[9] = test system: C. difficile VPI 10463; type: in vivo, C57BL/6 mice
Text: Murine C. Difficile Infection Model. A conventional mouse model of antibiotic-induced C. difficile infection that closely resembles the spectrum of disease manifest in humans was used as described (Chen et al., Gastroenterology 135:1984-92 (2008)). Disease severity varies from fulminant with typical histopathologic features of C. difficile infection, to minimal diarrhea depending on challenge dose. 12 week-old C57BL/6 mice were pre-treated for three days with a mixture of antibiotics shown to disrupt the intestinal microflora (Chen et al., Gastroenterology 135:1984-92 (2008)). After two days, mice were injected with clindamycin and were challenged intragastrically with 10^6 C. difficile VPI 10463 vegetative cells the following day. […] Oral administration of vancomycin (50 mg/kg/day) was used as a positive control.

[10] = in vivo; cited from earlier work
[11] = biological target: deoxygenated hemoglobin (Homo sapiens, UniProt P68871); type: binding

T1 sequence (P18177 2-2366 limits assumed): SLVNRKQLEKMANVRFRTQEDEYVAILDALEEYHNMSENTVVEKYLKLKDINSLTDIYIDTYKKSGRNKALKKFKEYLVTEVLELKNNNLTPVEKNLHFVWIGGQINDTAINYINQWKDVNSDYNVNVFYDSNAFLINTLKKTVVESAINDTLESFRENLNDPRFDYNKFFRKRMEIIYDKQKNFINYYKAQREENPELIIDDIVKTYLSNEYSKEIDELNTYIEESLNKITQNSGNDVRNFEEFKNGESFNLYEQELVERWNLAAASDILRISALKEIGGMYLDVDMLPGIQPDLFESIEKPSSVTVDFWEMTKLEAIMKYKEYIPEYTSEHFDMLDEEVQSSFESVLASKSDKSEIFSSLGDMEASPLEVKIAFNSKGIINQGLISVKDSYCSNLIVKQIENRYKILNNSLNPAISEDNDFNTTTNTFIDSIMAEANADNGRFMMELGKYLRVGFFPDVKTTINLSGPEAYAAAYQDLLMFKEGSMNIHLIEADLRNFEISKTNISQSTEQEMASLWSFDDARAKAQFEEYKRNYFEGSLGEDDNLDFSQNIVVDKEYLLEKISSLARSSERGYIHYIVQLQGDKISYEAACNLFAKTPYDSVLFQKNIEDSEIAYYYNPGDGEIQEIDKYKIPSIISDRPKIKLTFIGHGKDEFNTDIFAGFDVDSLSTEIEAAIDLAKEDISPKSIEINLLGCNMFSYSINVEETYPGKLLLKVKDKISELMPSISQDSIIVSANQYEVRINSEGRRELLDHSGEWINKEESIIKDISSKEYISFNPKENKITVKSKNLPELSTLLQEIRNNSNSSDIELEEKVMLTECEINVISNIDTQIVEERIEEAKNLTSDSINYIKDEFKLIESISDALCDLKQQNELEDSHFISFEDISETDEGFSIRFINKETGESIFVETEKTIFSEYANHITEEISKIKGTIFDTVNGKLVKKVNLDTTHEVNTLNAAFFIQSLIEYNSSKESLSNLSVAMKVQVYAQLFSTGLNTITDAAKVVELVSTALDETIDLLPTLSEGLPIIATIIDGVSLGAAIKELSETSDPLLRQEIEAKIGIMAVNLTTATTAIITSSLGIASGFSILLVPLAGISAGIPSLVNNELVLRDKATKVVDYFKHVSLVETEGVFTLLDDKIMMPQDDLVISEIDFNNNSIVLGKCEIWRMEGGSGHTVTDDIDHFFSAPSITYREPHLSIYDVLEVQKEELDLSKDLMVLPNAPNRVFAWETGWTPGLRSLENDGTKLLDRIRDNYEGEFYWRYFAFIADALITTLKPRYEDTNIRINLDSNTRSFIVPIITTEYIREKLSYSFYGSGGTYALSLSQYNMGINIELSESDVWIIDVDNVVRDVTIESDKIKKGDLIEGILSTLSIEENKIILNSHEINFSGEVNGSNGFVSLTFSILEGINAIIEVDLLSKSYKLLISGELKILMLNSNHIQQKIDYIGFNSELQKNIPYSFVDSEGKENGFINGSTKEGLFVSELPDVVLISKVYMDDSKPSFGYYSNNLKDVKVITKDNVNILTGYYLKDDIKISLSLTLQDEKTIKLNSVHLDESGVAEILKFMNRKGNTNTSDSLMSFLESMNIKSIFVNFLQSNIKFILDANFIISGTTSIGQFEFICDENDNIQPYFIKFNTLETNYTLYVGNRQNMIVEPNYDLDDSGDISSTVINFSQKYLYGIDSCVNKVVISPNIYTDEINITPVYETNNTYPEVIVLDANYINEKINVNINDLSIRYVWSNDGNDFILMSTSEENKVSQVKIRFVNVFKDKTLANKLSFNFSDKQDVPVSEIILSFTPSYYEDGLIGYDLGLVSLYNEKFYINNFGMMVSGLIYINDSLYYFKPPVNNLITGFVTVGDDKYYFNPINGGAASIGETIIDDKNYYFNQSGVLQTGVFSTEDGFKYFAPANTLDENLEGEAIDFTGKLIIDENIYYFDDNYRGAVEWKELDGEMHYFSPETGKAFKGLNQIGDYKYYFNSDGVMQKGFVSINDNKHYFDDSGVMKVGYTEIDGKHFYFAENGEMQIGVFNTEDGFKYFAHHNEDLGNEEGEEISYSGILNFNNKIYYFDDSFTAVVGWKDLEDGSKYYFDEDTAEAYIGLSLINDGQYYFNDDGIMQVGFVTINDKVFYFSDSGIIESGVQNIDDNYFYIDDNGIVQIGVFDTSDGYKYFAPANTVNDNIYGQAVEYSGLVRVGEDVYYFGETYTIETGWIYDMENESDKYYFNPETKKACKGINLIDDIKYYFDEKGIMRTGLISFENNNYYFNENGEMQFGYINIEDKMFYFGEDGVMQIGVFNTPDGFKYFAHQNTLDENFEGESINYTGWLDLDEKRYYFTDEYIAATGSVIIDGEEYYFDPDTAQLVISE
T2 sequence (P16154 whole entry, looked up): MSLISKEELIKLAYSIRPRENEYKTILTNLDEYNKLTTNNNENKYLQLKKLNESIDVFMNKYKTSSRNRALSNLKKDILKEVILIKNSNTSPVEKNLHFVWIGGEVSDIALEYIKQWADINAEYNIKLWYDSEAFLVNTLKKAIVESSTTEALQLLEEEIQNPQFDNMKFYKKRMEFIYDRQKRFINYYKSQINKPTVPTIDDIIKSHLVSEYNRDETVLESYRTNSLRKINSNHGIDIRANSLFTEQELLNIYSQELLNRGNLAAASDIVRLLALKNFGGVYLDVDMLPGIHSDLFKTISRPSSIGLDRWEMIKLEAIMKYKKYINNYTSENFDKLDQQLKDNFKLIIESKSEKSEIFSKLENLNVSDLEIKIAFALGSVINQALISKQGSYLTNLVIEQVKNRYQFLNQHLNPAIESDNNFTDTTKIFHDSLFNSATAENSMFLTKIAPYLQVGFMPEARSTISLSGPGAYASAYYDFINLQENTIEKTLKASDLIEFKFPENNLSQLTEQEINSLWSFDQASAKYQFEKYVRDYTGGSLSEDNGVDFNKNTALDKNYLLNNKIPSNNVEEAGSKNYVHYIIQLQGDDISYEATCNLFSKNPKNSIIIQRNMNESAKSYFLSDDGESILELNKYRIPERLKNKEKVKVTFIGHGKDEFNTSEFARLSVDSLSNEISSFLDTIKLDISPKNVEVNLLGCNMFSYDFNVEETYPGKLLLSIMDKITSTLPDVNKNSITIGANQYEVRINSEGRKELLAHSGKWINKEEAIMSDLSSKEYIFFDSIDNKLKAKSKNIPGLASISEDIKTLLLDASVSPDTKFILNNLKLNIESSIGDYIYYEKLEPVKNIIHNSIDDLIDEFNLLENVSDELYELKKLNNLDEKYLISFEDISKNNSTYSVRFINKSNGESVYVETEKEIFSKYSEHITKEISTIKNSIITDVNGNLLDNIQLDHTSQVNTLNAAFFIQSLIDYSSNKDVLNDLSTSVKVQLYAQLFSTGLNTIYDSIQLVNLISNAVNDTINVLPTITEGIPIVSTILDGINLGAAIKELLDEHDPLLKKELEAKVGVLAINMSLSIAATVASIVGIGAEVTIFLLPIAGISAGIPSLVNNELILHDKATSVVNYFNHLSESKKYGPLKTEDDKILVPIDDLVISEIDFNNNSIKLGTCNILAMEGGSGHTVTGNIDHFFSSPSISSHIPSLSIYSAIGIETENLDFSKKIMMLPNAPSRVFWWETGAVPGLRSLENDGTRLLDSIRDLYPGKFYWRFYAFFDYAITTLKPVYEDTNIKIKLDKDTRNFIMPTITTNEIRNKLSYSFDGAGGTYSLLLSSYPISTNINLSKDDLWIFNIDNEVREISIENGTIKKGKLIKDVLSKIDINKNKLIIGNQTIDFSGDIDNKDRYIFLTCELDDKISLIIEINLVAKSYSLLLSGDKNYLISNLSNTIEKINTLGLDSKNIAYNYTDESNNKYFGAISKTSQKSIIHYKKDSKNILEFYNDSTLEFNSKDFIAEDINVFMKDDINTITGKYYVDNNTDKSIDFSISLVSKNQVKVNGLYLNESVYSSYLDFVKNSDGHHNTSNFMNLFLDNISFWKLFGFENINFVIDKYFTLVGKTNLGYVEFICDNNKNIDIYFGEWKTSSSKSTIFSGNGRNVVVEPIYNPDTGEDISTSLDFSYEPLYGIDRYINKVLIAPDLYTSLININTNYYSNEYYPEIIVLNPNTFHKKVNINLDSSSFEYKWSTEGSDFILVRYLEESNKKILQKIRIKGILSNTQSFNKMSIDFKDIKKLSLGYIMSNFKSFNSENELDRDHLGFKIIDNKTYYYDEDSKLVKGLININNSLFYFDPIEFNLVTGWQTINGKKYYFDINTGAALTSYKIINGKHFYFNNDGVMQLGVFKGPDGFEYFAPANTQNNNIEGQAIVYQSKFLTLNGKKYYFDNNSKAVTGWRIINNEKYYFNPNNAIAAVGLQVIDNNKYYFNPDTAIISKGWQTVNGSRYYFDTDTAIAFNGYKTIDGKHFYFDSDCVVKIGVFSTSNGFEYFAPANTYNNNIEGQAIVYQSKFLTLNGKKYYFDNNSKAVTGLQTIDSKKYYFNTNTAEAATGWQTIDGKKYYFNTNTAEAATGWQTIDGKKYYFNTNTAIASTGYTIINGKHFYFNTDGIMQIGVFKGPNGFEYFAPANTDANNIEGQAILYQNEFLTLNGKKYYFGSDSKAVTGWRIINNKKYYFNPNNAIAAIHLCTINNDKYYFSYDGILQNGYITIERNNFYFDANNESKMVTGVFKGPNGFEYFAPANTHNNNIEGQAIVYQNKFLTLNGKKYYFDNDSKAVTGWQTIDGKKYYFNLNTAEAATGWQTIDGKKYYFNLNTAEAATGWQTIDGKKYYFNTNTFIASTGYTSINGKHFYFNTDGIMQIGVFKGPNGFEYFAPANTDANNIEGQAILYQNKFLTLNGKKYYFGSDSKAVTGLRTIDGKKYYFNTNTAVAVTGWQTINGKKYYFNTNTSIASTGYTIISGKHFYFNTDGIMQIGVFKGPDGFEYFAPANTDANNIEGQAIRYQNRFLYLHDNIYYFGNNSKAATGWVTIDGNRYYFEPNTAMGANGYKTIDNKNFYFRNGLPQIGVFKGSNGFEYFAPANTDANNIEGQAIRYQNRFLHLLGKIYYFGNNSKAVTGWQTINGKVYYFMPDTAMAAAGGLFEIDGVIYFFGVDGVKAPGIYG

## O[C@H](CS)[C@H](O)CS (racemic) [DTT, dithiothreitol]
[1]
  toxin autocleavage with agent alone: No significant toxin autocleavage

## N[C@@H](CCC(=O)N[C@@H](CS)C(=O)NCC(=O)O)C(=O)O [GSH, glutathione]
[1]
  effect on InsP6 induced TcdB autocleavage: potentiated
  toxin autocleavage with agent alone: No significant toxin autocleavage

## CCOC(=O)CNC(=O)[C@H](CS)NC(=O)CC[C@H](N)C(=O)O [GSH-EE, GSH-ethyl ester]
[2]
  effect on cytoprotection of eNOS expressing Caco-2 cells against TcdB: reversed

## N[C@@H](CCC(=O)N[C@@H](CSN=O)C(=O)NCC(=O)O)C(=O)O [GSNO, S-nitrosoglutathione]
[1]
  effect on InsP6 induced TcdB autocleavage: inhibited
[3]
  pIC50: 4.24
[4]
  IC50 of GSNO with inositolphosphate cofactor: low micromolar range
[5]
  glucosyltransferase activity in cell lysates: did not inhibit toxin binding to Caco-2 cells or alter glucosyltransferase activity
[6]; GSNO 10 mg/kg in 0.1 ml, TcdA 10 μg, 4 hrs
  TcdA induced fluid secretion in murine ileal loops: inhibits
[6]; TcdA 10 μg, 4 hrs
  TcdA induced TNF-α and IL-1γ gene transcripts: significantly attenuated
[6]; co-injected with TcdA into ileal loops for 4 hrs
  toxin-induced disease activity (histological damage, inflammation, intestinal secretion): markedly reduced
[7]
  toxin binding to Caco-2 cells: did not inhibit
[8]
  effect on InsP6 binding to the cysteine protease domain: significantly inhibited
[9]; oral gavage GSNO 10 mg/kg/day
  survival (Kaplan-Meier): survival benefit
[10]
  tolerability: well tolerated

## O=P(O)(O)OC1C(OP(=O)(O)O)C(OP(=O)(O)O)C(OP(=O)(O)O)C(OP(=O)(O)O)C1OP(=O)(O)O (stereo not shown) [InsP6, inositol hexakisphosphate]
[11]
  binding affinity: > 1.6 nM/mg protein
[6]; InsP6 1 mM with GSNO
  effect of added InsP6 on GSNO inhibition of TNF-α and IL-1γ transcripts: potentiated
[6]; InsP6 1 mM with GSNO 10 mg/kg
  effect of added InsP6 on GSNO protection against fluid secretion: enhanced
[9]; oral InsP6 0.25 mg/kg/day with GSNO 10 mg/kg/day
  effect of added InsP6 on survival benefit of GSNO: potentiated

## COC(=O)[C@@H](N)CCCNC(=N)N[N+](=O)[O-] [L-NAME, N^G-nitro-L-arginine methyl ester]
[2]
  effect on cytoprotection of eNOS expressing Caco-2 cells against TcdB: reversed

## (rac1)-1(3)-PP-(2,3,4,5,6)InsP5 [r-InsP7]
[1]
  TcdB autocleavage activity: not significantly different

## D-myo-5-PP-(1,2,3,4,6)InsP5 [m-InsP7]
[1]
  TcdB autocleavage activity: not significantly different
